According to PubChem BioAssay AID2321 (Johns Hopkins Ion Channel Center, 2010):
The source made the active and inactive calls. How the calls were made is not given here.

These molecules were tested against Voltage-gated inwardly rectifying potassium channel KCNH2 (Homo sapiens) (UniProt Q12809) (assay: relief of dofetilide hERG inhibition by whole-cell recording – manual patch clamp, HEK293-hERG, orthogonal assay, late-stage follow-up (AID 2321)). Conditions: dofetilide block rescue, at 10 µM, hits give high values.
Chain of Voltage-gated inwardly rectifying potassium channel KCNH2 (Homo sapiens) (Q12809 whole entry, looked up): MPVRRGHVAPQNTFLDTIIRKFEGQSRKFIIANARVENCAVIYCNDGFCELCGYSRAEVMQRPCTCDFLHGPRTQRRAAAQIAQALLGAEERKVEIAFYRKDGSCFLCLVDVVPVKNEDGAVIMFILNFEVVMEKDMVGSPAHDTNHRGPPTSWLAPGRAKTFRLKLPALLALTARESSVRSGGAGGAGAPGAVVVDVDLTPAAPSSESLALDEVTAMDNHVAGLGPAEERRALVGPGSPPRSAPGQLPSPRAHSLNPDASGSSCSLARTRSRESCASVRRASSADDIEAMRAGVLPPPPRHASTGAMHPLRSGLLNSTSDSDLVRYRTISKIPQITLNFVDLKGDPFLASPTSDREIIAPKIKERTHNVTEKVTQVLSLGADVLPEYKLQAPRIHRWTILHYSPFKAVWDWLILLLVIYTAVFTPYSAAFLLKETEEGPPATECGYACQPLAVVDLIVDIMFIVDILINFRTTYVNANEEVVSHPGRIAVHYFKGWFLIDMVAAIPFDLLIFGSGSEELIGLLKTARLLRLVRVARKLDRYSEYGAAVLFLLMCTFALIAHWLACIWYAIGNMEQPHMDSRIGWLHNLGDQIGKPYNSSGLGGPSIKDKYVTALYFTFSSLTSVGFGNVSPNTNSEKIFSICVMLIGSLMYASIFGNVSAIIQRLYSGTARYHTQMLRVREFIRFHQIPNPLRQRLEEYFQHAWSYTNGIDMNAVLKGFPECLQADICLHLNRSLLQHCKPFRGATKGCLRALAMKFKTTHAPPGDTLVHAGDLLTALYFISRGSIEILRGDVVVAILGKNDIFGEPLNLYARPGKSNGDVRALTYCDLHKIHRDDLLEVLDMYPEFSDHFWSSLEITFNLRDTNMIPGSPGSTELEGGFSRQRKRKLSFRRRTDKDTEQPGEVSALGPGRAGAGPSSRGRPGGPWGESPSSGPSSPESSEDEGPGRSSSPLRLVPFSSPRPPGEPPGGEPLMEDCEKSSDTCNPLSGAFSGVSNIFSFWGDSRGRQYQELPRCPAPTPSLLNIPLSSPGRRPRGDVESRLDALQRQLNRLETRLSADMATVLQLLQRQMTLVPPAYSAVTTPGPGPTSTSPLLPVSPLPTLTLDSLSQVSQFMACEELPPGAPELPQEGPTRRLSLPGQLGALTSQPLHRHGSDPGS

Structure (SMILES) | percent unblocked
COc1ccccc1NC(=S)NC(=O)c1ccc(-c2ccc(Cl)cc2)o1 | 0% (inactive)
Cc1ccc(C(=O)Nc2nc3ccccc3c(=O)s2)cc1 | 0% (inactive)
CN(c1ccccc1)c1nc2cc(Cl)ccc2o1 | 0% (inactive)
Clc1ccc2oc(Nc3ccccn3)nc2c1 | 0% (inactive)
O=C(O)c1ccc(Nc2nc3cc(Cl)ccc3o2)cc1 | 0% (inactive)
COc1ccc(OC)c(NC(=S)NC(=O)c2ccc(Br)o2)c1 | 0% (inactive)
O=C(O)c1cc(Cl)ccc1Nc1nc2cc(Cl)ccc2o1 | 0% (inactive)
O=C(O)c1ccccc1Nc1nc2cc(Cl)ccc2o1 | 0% (inactive)
O=C(COc1ccc2ccccc2c1Br)Nc1cccnc1 | 0% (inactive)
